Assay results as given in patent publication US20260285850A1, “SUBSTITUTED OXAZOLIDINONES AND IMIDAZOLINONES AS HERBICIDES” (FMC CORPORATION, priority 2023, published 2026).

What was measured:
Format in all cases: in vivo
[1] = tested on: oat, wild (wild oat, Avena fatua); test: Test A preemergence soil spray, visual injury rating 0-100; conditions: 10 days
Procedure, shortened: (§1)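 Directed preemergence spray onto seeded soil or postemergence spray onto 2-10 cm plants (loam plus sand); compound carried in surfactant-containing non-phytotoxic solvent. Injury rated by eye after 10 d greenhouse growth; 0 = no effect, 100 = complete control.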

[2] = tested on: green foxtail (Setaria viridis); test: as above; conditions: 10 days
Procedure, shortened: as §1

[3] = tested on: palmer (palmer amaranth, palmer pigweed, Amaranthus palmeri); test: as above; conditions: 10 days
Procedure, shortened: as §1

[4] = tested on: blackgrass (Alopecurus myosuroides); test: as above; conditions: 10 days
Procedure, shortened: as §1

[5] = tested on: ryegrass, Italian (italian ryegrass, Lolium multiflorum); test: as above; conditions: 10 days
Procedure, shortened: as §1

corn (Zea mays) [6] = test: as above; conditions: 10 days
Procedure, shortened: as §1

kochia (Bassia scoparia) [7] = test: as above; conditions: 10 days
Procedure, shortened: as §1

soybean (Glycine max) [8] = test: as above; conditions: 10 days
Procedure, shortened: as §1

[9] = tested on: barnyardgrass (Echinochloa crus-galli); test: as above; conditions: 10 days
Procedure, shortened: as §1

[10] = tested on: wheat (Triticum aestivum); test: as above; conditions: 10 days
Procedure, shortened: as §1

[11] = tested on: ragweed (common ragweed, Ambrosia artemisiifolia); test: as above; conditions: 10 days
Procedure, shortened: as §1

[12] = tested on: oat, wild (wild oat, Avena fatua); test: Test A postemergence application, visual injury rating 0-100
Procedure, shortened: as §1

[13] = tested on: green foxtail (Setaria viridis); test: as above
Procedure, shortened: as §1

[14] = tested on: palmer (palmer amaranth, palmer pigweed, Amaranthus palmeri); test: as above
Procedure, shortened: as §1

[15] = tested on: blackgrass (Alopecurus myosuroides); test: as above
Procedure, shortened: as §1

[16] = tested on: ryegrass, Italian (italian ryegrass, Lolium multiflorum); test: as above
Procedure, shortened: as §1

corn (Zea mays) [17] = test: as above
Procedure, shortened: as §1

kochia (Bassia scoparia) [18] = test: as above
Procedure, shortened: as §1

soybean (Glycine max) [19] = test: as above
Procedure, shortened: as §1

[20] = tested on: barnyardgrass (Echinochloa crus-galli); test: as above
Procedure, shortened: as §1

[21] = tested on: wheat (Triticum aestivum); test: as above
Procedure, shortened: as §1

[22] = tested on: ragweed (common ragweed, Ambrosia artemisiifolia); test: as above
Procedure, shortened: as §1

[23] = tested on: galium (catchweed bedstraw, Galium aparine); test: as above
Procedure, shortened: as §1

[24] = tested on: horseweed (Erigeron canadensis); test: as above
Procedure, shortened: as §1

[25] = tested on: barnyardgrass (Echinochloa crusgalli); test: Test B flooded paddy test, visual plant response rating 0-100; conditions: 250 g ai/ha, Flood, applied to paddy water, evaluated after 13 days
Procedure, shortened: (§2)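 Paddy-water application: test compounds went directly into water flooded 3 cm above the soil surface, with plants at 2 leaves. After a 13-day greenhouse period, responses were judged by eye relative to controls; a dash marks an untested entry.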

[26] = tested on: sedge, umbrella (small-flower umbrella sedge, Cyperus difformis); test: as above; conditions: 250 g ai/ha, Flood, applied to paddy water, evaluated after 13 days
Procedure, shortened: as §2

rice (Oryza sativa) = test: as above; conditions: 250 g ai/ha, Flood, applied to paddy water, evaluated after 13 days
Procedure, shortened: as §2

[27] = tested on: ducksalad (Heteranthera limosa); test: as above; conditions: 250 g ai/ha, Flood, applied to paddy water, evaluated after 13 days
Procedure, shortened: as §2

[28] = 62 g ai/ha, 0 = no effect, 100 = complete control
[29] = 62 g ai/ha, postemergence, 10 days, 0 = no effect, 100 = complete control
[30] = Postemergence, 16 g ai/ha, greenhouse 10 days, 0 no effect, 100 complete control

With `COC(=O)C1C=CC(NC(=O)C2(C)CN(c3cc(F)cc(F)c3)C(=O)O2)C1` (stereo not shown) [Compound 92] the “Oat, Wild plant response rating” value ([1]; 16 g ai/ha, 0 to 100 scale) was 0, the “Oat, Wild plant response rating (0-100)” value [1, 28] was 0 and the “Foxtail, Green plant response rating” value ([2]; 16 g ai/ha, 0 to 100 scale) was 0. For the same compound, the “Foxtail, Green plant response rating (0-100)” value [2, 28] was 0, the “Pigweed, Palmer plant response rating” value ([3]; 16 g ai/ha, 0 to 100 scale) was 0 and the “Pigweed, Palmer plant response rating (0-100)” value [3, 28] was 70. The “Blackgrass plant response rating” value ([4]; 16 g ai/ha, 0 to 100 scale) was 0, the “Blackgrass plant response rating (0-100)” value [4, 28] was 0 and the “Ryegrass, Italian plant response rating” value ([5]; 16 g ai/ha, 0 to 100 scale) was 0. For the same compound, the “Ryegrass, Italian plant response rating (0-100)” value [5, 28] was 0, the “Corn plant response rating” value (corn (Zea mays) [6]; 16 g ai/ha, 0 to 100 scale) was 0 and the “Corn plant response rating (0-100)” value (corn (Zea mays) [6]; [28]) was 0. For the same compound, the “Kochia plant response rating” value (kochia (Bassia scoparia) [7]; 16 g ai/ha, 0 to 100 scale) was 0, the “Kochia plant response rating (0-100)” value (kochia (Bassia scoparia) [7]; [28]) was 0 and the “Soybean plant response rating” value (soybean (Glycine max) [8]; 16 g ai/ha, 0 to 100 scale) was 0. The “Soybean plant response rating (0-100)” value (soybean (Glycine max) [8]; [28]) was 0, the “Barnyardgrass plant response rating” value ([9]; 16 g ai/ha, 0 to 100 scale) was 0 and the “Barnyardgrass plant response rating (0-100)” value [9, 28] was 0. For the same compound, the “Wheat plant response rating” value ([10]; 16 g ai/ha, 0 to 100 scale) was 0, the “Wheat plant response rating (0-100)” value [10, 28] was 0 and the “Ragweed plant response rating” value ([11]; 16 g ai/ha, 0 to 100 scale) was 0. For the same compound, the “Ragweed plant response rating (0-100)” value [11, 28] was 0, the “Oat, Wild plant response rating (0-100)” value [12, 29] was 0 and the “Oat, Wild plant response rating (0 to 100 scale)” value [12, 30] was 0. For the same compound, the “Foxtail, Green plant response rating (0-100)” value [13, 29] was 0, the “Foxtail, Green plant response rating (0 to 100 scale)” value [13, 30] was 0 and the “Pigweed, Palmer plant response rating (0-100)” value [14, 29] was 0. The “Pigweed, Palmer plant response rating (0 to 100 scale)” value [14, 30] was 0, the “Blackgrass plant response rating (0-100)” value [15, 29] was 0 and the “Blackgrass plant response rating (0 to 100 scale)” value [15, 30] was 0. The “Ryegrass, Italian plant response rating (0-100)” value [16, 29] was 0, the “Ryegrass, Italian plant response rating (0 to 100 scale)” value [16, 30] was 0 and the “Corn plant response rating (0-100)” value (corn (Zea mays) [17]; [29]) was 0. For the same compound, the “Corn plant response rating (0 to 100 scale)” value (corn (Zea mays) [17]; [30]) was 0, the “Kochia plant response rating (0-100)” value (kochia (Bassia scoparia) [18]; [29]) was 0 and the “Kochia plant response rating (0 to 100 scale)” value (kochia (Bassia scoparia) [18]; [30]) was 0. For the same compound, the “Soybean plant response rating (0-100)” value (soybean (Glycine max) [19]; [29]) was 0, the “Soybean plant response rating (0 to 100 scale)” value (soybean (Glycine max) [19]; [30]) was 0 and the “Barnyardgrass plant response rating (0-100)” value [20, 29] was 0. For the same compound, the “Barnyardgrass plant response rating (0 to 100 scale)” value [20, 30] was 0, the “Wheat plant response rating (0-100)” value [21, 29] was 0 and the “Wheat plant response rating (0 to 100 scale)” value [21, 30] was 0. The “Ragweed plant response rating (0-100)” value [22, 29] was 20, the “Ragweed plant response rating (0 to 100 scale)” value [22, 30] was 0 and the “Galium plant response rating (0-100)” value [23, 29] was 0. For the same compound, the “Galium plant response rating (0 to 100 scale)” value [23, 30] was 0, the “Horseweed plant response rating (0-100)” value [24, 29] was 0 and the “Horseweed plant response rating (0 to 100 scale)” value [24, 30] was 0. For the same compound, the “Plant response rating, Barnyardgrass (0 to 100 scale, 0 is no effect and 100 is complete control)” value [25] was 0, the “Plant response rating, Sedge, Umbrella (0 to 100 scale, 0 is no effect and 100 is complete control)” value [26] was 0 and the “Plant response rating, Rice (0 to 100 scale, 0 is no effect and 100 is complete control)” value (rice (Oryza sativa)) was 0. The “Plant response rating, Ducksalad (0 to 100 scale, 0 is no effect and 100 is complete control)” value [27] was 0.
